Results reported in PubChem BioAssay AID1919009 (Molecular Pharmacology Branch, DTP, NCI, 2023).

Tested on: K24384-001-R-PDC complex spheroid growth
Experiment: Anticancer human tumor K24384-001-R-PDC patient-derived pancreatic adenocarcinoma cell line growth inhibition [AhR]
Conditions: for IC50: curve of first compound; for viability, T/C: stronger effect = lower value
In short: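 Agents were dosed in half-log steps down from roughly clinical Cmax, or from 10 microM where Cmax was unknown, alone and with AhR antagonists. Read-out: percent test/control growth of tumor spheroids containing HUVEC and MSC stromal cells.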
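Wherever viability, T/C is given: percent of DMSO vehicle-treated spheroid viability set as 100%.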

`CC(C)CC(NC(=O)C(Cc1ccccc1)NC(=O)c1cnccn1)B(O)O` (stereo not given) + Cc1ccccc1N=Nc1ccc(NC(=O)c2ccnn2C)c(C)c1 gave an IC50 (second compound 0.1 µM) of 10.7 nM, an IC50 (second compound 0.316 µM) of 9.9 nM and an IC50 (second compound 1 µM) of 11.2 nM. It also gave an IC50 (second compound 3.16 µM) of 9.78 nM, an IC50 (second compound 10 µM) of 10.5 nM and a viability, T/C (second compound 0.1 µM, first compound 0.000949 µM) of 106%. The viability, T/C (second compound 0.1 µM, first compound 0.003 µM) was 90%, the viability, T/C (second compound 0.1 µM, first compound 0.00949 µM) was 57.3% and the viability, T/C (second compound 0.1 µM, first compound 0.03 µM) was 1.13%. It also gave a viability, T/C (second compound 0.1 µM, first compound 0.0949 µM) of 0.15%, a viability, T/C (second compound 0.1 µM, first compound 0.3 µM) of 0.42% and a viability, T/C (second compound 0.316 µM, first compound 0.000949 µM) of 95.3%. The viability, T/C (second compound 0.316 µM, first compound 0.003 µM) was 76.8%, the viability, T/C (second compound 0.316 µM, first compound 0.00949 µM) was 54% and the viability, T/C (second compound 0.316 µM, first compound 0.03 µM) was 1.07%. The viability, T/C (second compound 0.316 µM, first compound 0.0949 µM) was 0.38%, the viability, T/C (second compound 0.316 µM, first compound 0.3 µM) was 0.33% and the viability, T/C (second compound 1 µM, first compound 0.000949 µM) was 104%. The viability, T/C (second compound 1 µM, first compound 0.003 µM) was 79.5%, the viability, T/C (second compound 1 µM, first compound 0.00949 µM) was 60.4% and the viability, T/C (second compound 1 µM, first compound 0.03 µM) was 1.14%. For the same compound, the viability, T/C (second compound 1 µM, first compound 0.0949 µM) was 0.44%, the viability, T/C (second compound 1 µM, first compound 0.3 µM) was 0.38% and the viability, T/C (second compound 3.16 µM, first compound 0.000949 µM) was 83.9%. For the same compound, the viability, T/C (second compound 3.16 µM, first compound 0.003 µM) was 102%, the viability, T/C (second compound 3.16 µM, first compound 0.00949 µM) was 51.3% and the viability, T/C (second compound 3.16 µM, first compound 0.03 µM) was 1.31%. It also gave a viability, T/C (second compound 3.16 µM, first compound 0.0949 µM) of 0.31%, a viability, T/C (second compound 3.16 µM, first compound 0.3 µM) of 0.48% and a viability, T/C (second compound 10 µM, first compound 0.000949 µM) of 97.4%. It also gave a viability, T/C (second compound 10 µM, first compound 0.003 µM) of 115%, a viability, T/C (second compound 10 µM, first compound 0.00949 µM) of 54.7% and a viability, T/C (second compound 10 µM, first compound 0.03 µM) of 2.19%. For the same compound, the viability, T/C (second compound 10 µM, first compound 0.0949 µM) was 1.72% and the viability, T/C (second compound 10 µM, first compound 0.3 µM) was 0.66%.
